Experimental findings from US8481732B2 (Incyte Corporation, priority 2009, dated 2013) are described below.

pIC50: −log10 of the molar value.

The test deals with T1, histamine H4 receptor (Homo sapiens, UniProt Q9H3N8).
T1 construct: expressed in transfected cells; host or cells: HEK293SFM cells (membrane preparation)
T1 sequence (Q9H3N8 whole entry): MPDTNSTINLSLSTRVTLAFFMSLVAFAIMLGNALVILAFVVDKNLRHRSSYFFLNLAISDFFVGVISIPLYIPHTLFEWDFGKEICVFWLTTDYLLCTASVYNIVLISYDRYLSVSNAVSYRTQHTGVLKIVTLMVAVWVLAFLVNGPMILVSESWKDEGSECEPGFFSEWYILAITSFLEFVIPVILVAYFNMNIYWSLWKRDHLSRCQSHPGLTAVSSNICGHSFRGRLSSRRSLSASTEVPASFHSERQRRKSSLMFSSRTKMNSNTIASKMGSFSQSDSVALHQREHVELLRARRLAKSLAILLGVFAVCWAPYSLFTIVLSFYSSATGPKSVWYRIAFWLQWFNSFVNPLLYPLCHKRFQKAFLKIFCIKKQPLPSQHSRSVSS
As to the kind of experiment: H4 Membrane Binding Assay (3H-Histamine displacement). The note with it: membranes of recombinant HEK293SFM cells, 10 nM 3H-Histamine, 1.5 hr at room temperature. As to the method: Recombinant HEK293SFM cells expressing human H1, H2, H3, H4 or mouse H4 were harvested (Packard Filtermate Harvester) in ice-cold Tris-HCl, (50 mM, pH 7.5, Sigma) with protease inhibitors (Roche) and homogenized with a Polytron homogenizer. The homogenate was centrifuged for 5 minutes at 1000 g to remove nuclei and unbroken cells. The supernatant was centrifuged at 50000 g for 30 minutes, and the resulting pellet was re-suspended in ice-cold Tris-HCl (50 mM, pH 7.5). […] Nonspecific binding was determined by inclusion of 1000× unlabeled ligands. The bound radioactivity was separated by filtration through polyethyleneimine-treated GF/B filters (Perkin Elmer). The filters were washed eight times with ice-cold Tris-HCl (50 mM, pH 7.5), and radioactivity retained on the filters was measured by liquid scintillation counting. The binding data were evaluated with Prism.
Consider `CC(C)OC(=O)N1CCC(CC(=O)N2CCc3ccc(-c4cc(N5CCN(C)CC5)nc(N)n4)cc3C2)CC1` [Example 71, Isopropyl 4-{2-[7-[2-amino-6-(4-methylpiperazin-1-yl)pyrimidin-4-yl]-3,4-dihydroisoquinolin-2(1H)-yl]-2-oxoethyl}piperidine-1-carboxylate], for which the pIC50 is 7.18.

Take `COC(=O)[C@H](Cc1ccc(OC(=O)NC(C)C)cc1)NC(=O)c1ccc2c(N3CCN(C)CC3)nc(N)nc2c1` [Example 135, (S)-Methyl 2-(2-amino-4-(4-methylpiperazin-1-yl)quinazoline-7-carboxamido)-3-(4-(isopropylcarbamoyloxy)phenyl)propanoate]: the pIC50 was 7.15.

As for `CCOC(=O)[C@@H]1CCCC[C@@H]1NC(=O)N1CCc2ccc(-c3cc(N4CCN(C)CC4)nc(N)n3)cc2C1` (relative stereo) [Example 53, Ethyl cis-2-({[7-[2-amino-6-(4-methylpiperazin-1-yl)pyrimidin-4-yl]-3,4-dihydroisoquinolin-2(1H)-yl]carbonyl}amino)cyclohexanecarboxylate], the negative logarithm of the IC50 (pIC50) is 6.97.

Take `CN1CCN(c2cc(-c3ccc4c(c3)CN(C(=O)C3CCC3)CC4)nc(N)n2)CC1` [Example 3, 4-[2-(Cyclobutylcarbonyl)-1,2,3,4-tetrahydroisoquinolin-7-yl]-6-(4-methylpiperazin-1-yl)pyrimidin-2-amine]: the negative logarithm of the IC50 (pIC50) is 6.77.

Turning to `CC(C)OC(=O)N1CCc2ccc(-c3cc(N4CCN(C)CC4)nc(N)n3)cc2C1` [Example 11, Isopropyl 7-[2-amino-6-(4-methylpiperazin-1-yl)pyrimidin-4-yl]-3,4-dihydroisoquinoline-2(1H)-carboxylate], the negative-log IC50 (pIC50) is 7.37.

Consider `CC(C)NC(=O)N1CCc2ccc(-c3cc(N4CCN(C)CC4)nc(N)n3)cc2C1` [Example 13, 7-[2-Amino-6-(4-methylpiperazin-1-yl)pyrimidin-4-yl]-N-isopropyl-3,4-dihydroisoquinoline-2(1H)-carboxamide], for which the pIC50 was 7.24.

For the molecule `CN1CCN(c2nc(N)nc3cc(C(=O)N[C@@H](Cc4ccc(OC(=O)Nc5cccc(Cl)c5)cc4)C(=O)N(C)C)ccc23)CC1` [Example 165, 4-[(2S)-2-({[2-Amino-4-(4-methylpiperazin-1-yl)quinazolin-7-yl]carbonyl}amino)-3-(dimethylamino)-3-oxopropyl]phenyl (3-chlorophenyl)carbamate], the pIC50 is 7.80.

As for `CN1CCN(c2nc(N)nc3cc(C(=O)NCc4ccc(-c5ccccc5)cc4)ccc23)CC1` [Example 33], the pIC50 was 6.72.

As for `COC(=O)N1CCC(OC(=O)N2CCc3ccc(-c4cc(N5CCN(C)CC5)nc(N)n4)cc3C2)CC1` [Example 115, 1-(Methoxycarbonyl)piperidin-4-yl 7-[2-amino-6-(4-methylpiperazin-1-yl)pyrimidin-4-yl]-3,4-dihydroisoquinoline-2(1H)-carboxylate], the negative logarithm of the IC50 (pIC50) is 7.48.

As to `CN1CCN(c2nc(N)nc3cc(C(=O)NCc4cccc(OCc5cccc6nsnc56)c4)ccc23)CC1` [Example 195, 2-Amino-N-[3-(2,1,3-benzothiadiazol-4-ylmethoxy)benzyl]-4-(4-methylpiperazin-1-yl)quinazoline-7-carboxamide], the negative logarithm of the IC50 (pIC50) is 8.47.

Take `COC(=O)[C@H](Cc1ccc(-c2cnn(C)c2)cc1)NC(=O)c1ccc2c(N3CCN(C)CC3)nc(N)nc2c1` [Example 140, Methyl (2S)-2-({[2-amino-4-(4-methylpiperazin-1-yl)quinazolin-7yl]carbonyl}amino)-3-[4-(1-methyl-1H-pyrazol-4-yl)phenyl]propanoate]: the negative-log IC50 (pIC50) was 7.38.

As for `CN1CCN(c2cc(-c3ccc4c(c3)CN(C(=O)NC3(C(F)(F)F)CC3)CC4)nc(N)n2)CC1` [Example 117, 7-[2-amino-6-(4-methylpiperazin-1-yl)pyrimidin-4-yl]-N-[1-(trifluoromethyl)cyclopropyl]-3,4-dihydroisoquinoline-2(1H)-carboxamide], the pIC50 was 6.74.

`CC(C)[C@H](C)NC(=O)N1CCc2ccc(-c3cc(N4CCN(C)CC4)nc(N)n3)cc2C1` [Example 97, 7-[2-Amino-6-(4-methylpiperazin-1-yl)pyrimidin-4-yl]-N-[(1S)-1,2-dimethylpropyl]-3,4-dihydroisoquinoline-2(1H)-carboxamide]: the negative logarithm of the IC50 (pIC50) is 7.14.

`CC(NC(=O)c1ccc2c(N3CCN(C)CC3)nc(N)nc2c1)c1ccccc1` (stereo not shown) [Example 24, 2-Amino-4-(4-methylpiperazin-1-yl)-N-(1-phenylethyl)quinazoline-7-carboxamide]: the negative-log IC50 (pIC50) is 6.25.

Turning to `CN1CCN(c2cc(-c3ccc4c(c3)CN(C(=O)NC3(C)CCCCC3)CC4)nc(N)n2)CC1` [Example 47, 7-[2-Amino-6-(4-methylpiperazin-1-yl)pyrimidin-4-yl]-N-(1-methylcyclohexyl)-3,4-dihydroisoquinoline-2(1H)-carboxamide], the negative logarithm of the IC50 (pIC50) was 7.57.

On to `CN1CCN(c2nc(N)nc3cc(C(=O)NC(Cc4cccc(OCc5ccc(OC(F)(F)F)cc5)c4)C(=O)N(C)C)ccc23)CC1` (stereo not shown) [Example 177, 2-Amino-N-[2-(dimethylamino)-2-oxo-1-(3-{[4-(trifluoromethoxy)benzyl]oxy}benzyl)ethyl]-4-(4-methylpiperazin-1-yl)quinazoline-7-carboxamide], for which the pIC50 was 7.25.

With `CC(Cc1cc2ccccc2o1)NC(=O)c1ccc2c(N3CCN(C)CC3)nc(N)nc2c1` (stereo not shown) [Example 141, 2-Amino-N-[2-(1-benzofuran-2-yl)-1-methylethyl]-4-(4-methylpiperazin-1-yl)quinazoline-7-carboxamide], the negative logarithm of the IC50 (pIC50) is 7.15.

Regarding `CN1CCN(c2cc(-c3ccc4c(c3)CN(C(=O)c3ccc(Cl)cc3)CC4)nc(N)n2)CC1` [Example 2, 4-[2-(4-Chlorobenzoyl)-1,2,3,4-tetrahydroisoquinolin-7-yl]-6-(4-methylpiperazin-1-yl)pyrimidin-2-amine], the pIC50 was 6.76.

`CC(C)COC(=O)N1CCc2ccc(-c3cc(N4CCN(C)CC4)nc(N)n3)cc2C1` [Example 10, Isobutyl 7-[2-amino-6-(4-methylpiperazin-1-yl)pyrimidin-4-yl]-3,4-dihydroisoquinoline-2(1H)-carboxylate]: the pIC50 was 7.27.

As for `CN1CCN(c2nc(N)nc3cc(C(=O)NC4CCCc5ccc(OCc6cccc(C#N)c6)cc54)ccc23)CC1` (stereo not shown) [Example 202, 2-Amino-N-(7-(3-cyanobenzyloxy)-1,2,3,4-tetrahydronaphthalen-1-yl)-4-(4-methylpiperazin-1-yl)quinazoline-7-carboxamide], the pIC50 is 8.04.

On to `CN1CCN(c2cc(-c3ccc4c(c3)CN(C(=O)COc3cccc(Cl)c3)CC4)nc(N)n2)CC1` [Example 66, 4-{2-[(3-Chlorophenoxy)acetyl]-1,2,3,4-tetrahydroisoquinolin-7-yl}-6-(4-methylpiperazin-1-yl)pyrimidin-2-amine], for which the pIC50 was 7.36.

`CN1CCN(c2cc(-c3ccc4c(c3)CN(C(=O)NC3CCC(F)(F)CC3)CC4)nc(N)n2)CC1` [Example 63, 7-[2-Amino-6-(4-methylpiperazin-1-yl)pyrimidin-4-yl]-N-(4,4-difluorocyclohexyl)-3,4-dihydroisoquinoline-2(1H)-carboxamide]: the pIC50 is 7.43.

A word on the pIC50: it is −log10 of the IC50, conventionally taken in molar units.
